In patent US20100143319A1, “KIWIFRUIT COMPOSITIONS” (priority 2007, published 2010):

Key:
[1] = system: mouse small intestine motility; assay: First animal trial: small intestine motility experiment (Peristaltic Inhibition Model, diphenoxylate 0.25 g/l); format: in vivo, Kunmin male mice; conditions: model control: 0.25 g/l diphenoxylate oral, 20 ml/kg BW; mean ± SD, n=10; P<0.01 vs negative control
Text: Experimental animals: 100 Kunmin male mice (class two) were purchased from the animal center in the Academy of Military Medical Sciences of the Chinese PLA, with a weight of 16 to 18 g. • Group 1: 50 mice were randomly divided into 5 experimental groups each of 10 mice (negative control group, model control group and three dosage groups), to test small intestine motility. • Group 2: 50 mice were randomly divided into 5 experimental groups each of 10 mice (negative control group, model control group and three dosage groups), to measure the following parameters: time of first melena defecation, the number of faeces pellets, the weight of faeces, and to observe the shape of the faeces. […]
For this experiment, the dosage was set at 10 times that of the recommended dosage, namely 0.29 g/kgBW per day (4 capsules). […] Oral intubation was used to administer the dose to the mice, at a measured quantity of 20 ml/kgBW.
8 days after oral administration of the different treatments, each group was fasted for 16 hours (with free access to drinking water). Mice in the Peristaltic Inhibition Model control group and the three dose groups were orally administered 0.25 g/l, diphenoxylate at a measured quantity of 20 ml/kg BW. […] The 0 g/kg BW group (negative control group and model control group) were orally administered blank inks with a measured quantity of 20 ml/kg BW. […]

[2] = system: mouse Constipation Model; assay: First animal trial: constipation experiment (Constipation Model, diphenoxylate 0.50 g/l); format: in vivo, Kunmin male mice; conditions: mean ± SD, n=10
Text: Experimental animals: 100 Kunmin male mice (class two) were purchased from the animal center in the Academy of Military Medical Sciences of the Chinese PLA, with a weight of 16 to 18 g. • Group 1: 50 mice were randomly divided into 5 experimental groups each of 10 mice (negative control group, model control group and three dosage groups), to test small intestine motility. • Group 2: 50 mice were randomly divided into 5 experimental groups each of 10 mice (negative control group, model control group and three dosage groups), to measure the following parameters: time of first melena defecation, the number of faeces pellets, the weight of faeces, and to observe the shape of the faeces. Number of qualitative qualification is SCXK M 2002-001.
For this experiment, the dosage was set at 10 times that of the recommended dosage, namely 0.29 g/kgBW per day (4 capsules). The experiment was designed with a low dosage group (0.145 g/kgBW) (2 capsules) and a high dosage group (0.87 g/kgBW) (12 capsules). The kiwifruit extract was dissolved by gentle agitation into sterile distilled water. For both the negative control group (0 g/kgBW) and the model control group sterile distilled water was used as the treatment. Oral intubation was used to administer the dose to the mice, at a measured quantity of 20 ml/kgBW.
Parameters measured in the animal trial were time of defecation, the number of faeces pellets, the weight of the faeces, and visual observation of the shape of the faeces
The different doses of kiwifruit composition were orally administered to the mice, and the shape of the faeces during the eight day feeding trial was observed. […] The mice in the Peristaltic Inhibition Model control group and the three dose groups were orally administered 0.50 g/l of diphenoxylate in the calculated volume of 20 ml/kg BW, whilst the negative group were given an equivalent volume of water. […] The time of the first melena defecation was recorded, along with the number of faecal pellets within 5 hours and the weight of the faeces, as well as the shape of the faeces.

[3] = model control: 0.50 g/l diphenoxylate oral, 20 ml/kg BW, P 0.000 vs negative control

## CCOC(=O)C1(c2ccccc2)CCN(CCC(C#N)(c2ccccc2)c2ccccc2)CC1 [diphenoxylate, Diphenoxylate]
[1]
  Ink Progression (%): 33.8 ± 7.0 %
[2]; [3]
  Number of faeces pellets defecated within 5 hours (grain): 25 ± 16 grain
  Weight of faeces defecated within 5 hours: 0.47 ± 0.26 grain
[2]; model control: diphenoxylate oral, 20 ml/kg BW (0.50 g/l, 0.25 g/L elsewhere in the source), P<0.01 vs negative control
  Time of first melena defecation: 231.7 ± 81.7 min
